Source: PubChem BioAssay (NCI)
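These data come from cells grown in 96-well plates and exposed to compound for 48 hours at five concentrations. GI50: concentration for 50% inhibition of growth. TGI denotes the concentration required for complete inhibition of growth.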

Key:
Assay in all cases: NCI anticancer screen, dose series, 48 h
CAKI-1 renal = tested on: CAKI-1 renal
COLO 205 colon = tested on: COLO 205 colon
KM12 colon = tested on: KM12 colon
M14 melanoma = tested on: M14 melanoma
OVCAR-3 ovarian = tested on: OVCAR-3 ovarian
OVCAR-8 ovarian = tested on: OVCAR-8 ovarian
SK-MEL-28 melanoma = tested on: SK-MEL-28 melanoma
SK-MEL-5 melanoma = tested on: SK-MEL-5 melanoma
SN12C renal = tested on: SN12C renal
UO-31 renal = tested on: UO-31 renal

| SMILES | TGI (CAKI-1 renal) [µM] | TGI (COLO 205 colon) [µM] | TGI (KM12 colon) [µM] | TGI (M14 melanoma) [µM] | TGI (OVCAR-3 ovarian) [µM] | TGI (OVCAR-8 ovarian) [µM] | TGI (SK-MEL-28 melanoma) [µM] | TGI (SK-MEL-5 melanoma) [µM] | TGI (SN12C renal) [µM] | TGI (UO-31 renal) [µM] | GI50 (CAKI-1 renal) [µM] | GI50 (COLO 205 colon) [µM] | GI50 (KM12 colon) [µM] | GI50 (M14 melanoma) [µM] | GI50 (OVCAR-3 ovarian) [µM] | GI50 (OVCAR-8 ovarian) [µM] | GI50 (SK-MEL-28 melanoma) [µM] | GI50 (SK-MEL-5 melanoma) [µM] | GI50 (SN12C renal) [µM] | GI50 (UO-31 renal) [µM] |
| --- | --- | --- | --- | --- | --- | --- | --- | --- | --- | --- | --- | --- | --- | --- | --- | --- | --- | --- | --- | --- |
| O=C(O)c1cc(C(=O)O)cc(N2C(=O)c3ccccc3C2=O)c1 | > 100 | > 100 | > 100 | > 100 | > 100 | > 100 | > 100 | > 100 | > 100 | > 100 | – | – | – | – | – | – | – | – | – | – |
| COc1cc2nc(C)nc(N[C@H](C)c3cc(N)cc(C(F)(F)F)c3)c2cc1O[C@H]1CCOC1 | 24.1 | 33.4 | 30 | 31.7 | 38.4 | 42.8 | 29.6 | 26.5 | 21.9 | 17.3 | 7.14 | 15.8 | 14.9 | 16.1 | 15.6 | 15.5 | 16 | 13.4 | 6.46 | 2.28 |
| COc1ccc(C2=CSc3cc(Cl)c(C)cc3S(=O)(=O)N2C(C)=O)cc1 | 32.9 | > 100 | 92.2 | > 100 | 41.4 | > 100 | > 100 | 48.5 | 41.7 | > 100 | 11.5 | 38.5 | 23.1 | 49.1 | 15.8 | 33.8 | 56 | 19.9 | 13.7 | 51.2 |
| COc1cc(/C=C/c2cc(/C=C/c3ccc(O)c(OC)c3)n(C(=O)Nc3ccc(F)cc3)n2)ccc1O | 49.5 | 3.7 | 9.12 | 7.5 | 3.13 | 4.79 | 7.84 | 3.25 | 34.1 | 6.27 | 0.77 | 2.09 | 0.46 | 0.46 | 0.474 | 1.5 | 0.912 | 0.418 | 0.953 | 0.587 |
| CCOC(=O)C(Sc1ccccc1)c1c(OC)cc(=O)oc1/C=[N+](/[O-])c1ccc(N(C)C)cc1 (stereo not given) | 32.1 | 45.4 | 47.4 | 31.1 | 26 | 44.2 | 37 | 44.9 | 32 | 41.9 | – | – | – | – | – | – | – | – | – | – |
| Oc1ccc(Cl)cc1-c1cc(-c2ccccc2Cl)[nH]n1 | > 100 | > 100 | > 100 | > 100 | > 100 | > 100 | > 100 | > 100 | > 100 | > 100 | 2.87 | 27.3 | 2.41 | 25.9 | 2.37 | 7.13 | > 100 | 5.66 | 6.32 | 3.77 |
| Nc1ccc(C(=O)N/C(=C\c2ccc3c(c2)OCO3)c2nc3[nH]c(=S)[nH]c(=O)c3[nH]2)cc1 | > 100 | > 100 | > 100 | > 100 | > 100 | > 100 | > 100 | > 100 | > 100 | > 100 | – | – | – | – | – | – | – | – | – | – |
| CCN(CC)CC(C(=O)Nc1c(C)cccc1C)/C(C)=N\NC(=O)C[N+](C)(C)C (stereo not given) | > 100 | > 100 | > 100 | > 100 | > 100 | > 100 | > 100 | > 100 | > 100 | > 100 | – | – | – | – | – | – | – | – | – | – |
| Clc1cccc(Cc2cn3cc(-c4ccccc4)nc3s2)c1Cl | > 100 | > 100 | > 100 | > 100 | > 100 | > 100 | > 100 | > 100 | > 100 | > 100 | > 100 | > 100 | 6.35 | > 100 | 37.9 | 23.5 | 54.4 | > 100 | > 100 | > 100 |
| O=C(N/C(=C\c1cc(Cl)ccc1Cl)c1nc2[nH]c(=S)[nH]c(=O)c2[nH]1)c1ccccc1 | > 100 | > 100 | 73.6 | > 56.5 | > 100 | > 71.8 | > 83.5 | > 100 | > 66.6 | > 76.4 | – | – | – | – | – | – | – | – | – | – |
| CCOC(=O)COc1cccc2c1C(=O)CCO2 | > 100 | > 100 | > 100 | > 100 | > 100 | > 100 | > 100 | > 100 | > 100 | > 100 | – | – | – | – | – | – | – | – | – | – |
| Nc1cc2nc3ccccc3sc-2cc1=O | 22.1 | 4.61 | 30.6 | 3.2 | 7.09 | 13.8 | 4.04 | 2.93 | 3.4 | 3.36 | 5.66 | 2.16 | 10.8 | 1.66 | 1.76 | 3.17 | 2.12 | 1.55 | 1.72 | 1.33 |
| CC1(C)OC(=O)C(=Cc2ccc(O)cc2)C(=O)O1 | > 100 | > 100 | > 100 | > 100 | > 100 | > 100 | > 100 | > 100 | > 100 | > 100 | – | – | – | – | – | – | – | – | – | – |
| Cc1ccc(-c2nnc(-c3ccc4ccccc4c3)o2)cc1 | > 86.8 | > 100 | > 100 | > 93.2 | > 100 | > 100 | > 100 | > 100 | > 100 | > 100 | – | – | – | – | – | – | – | – | – | – |
| O=C1c2ccccc2C(=O)c2sc(Nc3cccc(Cl)c3)nc21 | 4.97 | 7.68 | 4.1 | 3.24 | 1.8 | 3.27 | 3.34 | 2.99 | 2.84 | 4 | – | – | – | – | – | – | – | – | – | – |
| CCOC(=O)Nc1nc2ccc(OCC)cc2s1 | > 100 | > 100 | > 100 | > 100 | > 100 | > 100 | > 100 | > 100 | > 100 | > 100 | > 100 | 10.4 | 3.31 | 6.84 | > 41.6 | 47.7 | > 60.7 | 5.56 | > 93.4 | > 100 |
